What all share (assay): inhibition of tumour cell growth, NCI panel, 48 h
The subject of test [1] is U251 CNS.
Test [2] relates to MOLT-4 leukemia.
In test [3] the test system is SF-268 CNS.
Test [4] relates to RXF 393 renal.
Test [5] concerns MDA-MB-231 breast.
The test system of test [6] is K-562 leukemia.
Test [7] deals with SK-MEL-2 melanoma.
In test [8] the test system is ACHN renal.

Among the data in PubChem BioAssay (NCI) are TGI and GI50 values, retold here.

“And” between values parts separate entries of the source, which are not always exact repeats. Identical values can stand only once.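 Assay format: 96-well plates, 48-hour exposure. At the GI50, growth is halved. The concentration for full growth arrest is given as TGI.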

Consider `CN(C)c1cccc(NC2=NCCO2)c1`, for which the TGI in test [1], in test [2], in test [3], in test [4], in test [5] and in test [6] was over 100 µM throughout. For the same compound, the figures for the TGI in test [7] and in test [8] were 48.7 µM and over 100 µM, respectively.

Turning to `CC1=NC(=Cc2ccc([N+](=O)[O-])cc2)C(=O)N1n1c(-c2ccccc2)nc2ccccc2c1=O`, the TGI in test [2] is 72.5 µM; in test [3], over 100 µM; in test [5], over 100 µM; in test [6], over 100 µM.

Take `CN1C(=O)C2(c3ccccc31)N(c1ccc(Cl)cc1)C(=O)C2(c1ccccc1)c1ccccc1` (centres undefined): the GI50 in test [1] was 45.5 µM; in test [2], 9.86 µM; in test [3], over 100 µM; in test [4] it was 64.6 µM; in test [5], 13.4 µM; in test [6] it was 4.28 µM. Besides, the GI50 in test [7] is 35.6 µM; in test [8], 78.4 µM. Further, the TGI was over 100 µM in test [1]; over 100 µM in test [2]; over 100 µM in test [3]; over 100 µM in test [4]; over 100 µM in test [5]; 95.3 µM in test [6]. For the same compound, the TGI in test [7] and in test [8] was over 100 µM in each case.

As for `CC(=O)c1c(C)[nH]c(-c2nc3ccc(N4CCN(C)CC4)cc3[nH]2)c1-c1ccccc1`, the GI50 in test [1] is 3.53 µM; in test [2], 6.47 µM; in test [3], 5.24 µM; in test [4], 2.84 µM; in test [5], 0.728 µM; in test [6] it was 0.779 µM. The GI50 in test [7] was 4.02 µM; in test [8] it was 0.876 µM. For the same compound, the TGI in test [1] was 72.6 µM; in test [2], over 100 µM; in test [3], 39.6 µM; in test [4] it was 16.1 µM; in test [5] it was 22.8 µM; in test [6], over 100 µM. Besides, the TGI was found to be 22.2 µM in test [7] and 12.3 µM in test [8].

As for `CCOC(=O)c1cnc2c(C)cccc2c1Nc1ccc(C(C)=O)cc1`, the GI50 was 63.8 µM in test [1]; 43.6 µM in test [2]; 18.3 µM in test [3]; 4.23 µM in test [4]; 19.7 µM in test [5]; over 100 µM in test [6]. The GI50 in test [8] is 33.5 µM. Moreover, the TGI in test [1] was over 100 µM; in test [2] it was over 100 µM; in test [3] it was 64.2 µM; in test [4], 63.8 µM; in test [5], over 100 µM; in test [6], over 100 µM. In test [8], this compound displayed a TGI of over 100 µM.

Turning to `O=C(COc1cccc(/C=C2\CSc3ccccc3C2=O)c1)Nc1nccs1`, the GI50 in test [1] was 1.82 µM; in test [3] it was 1.76 µM; in test [5] it was 5.46 µM; in test [6] it was 2.79 µM; in test [7] it was 1.22 µM; in test [8] it was 2.66 µM. In addition, the TGI was 3.21 µM in test [1]; 3.35 µM in test [3]; 21.4 µM in test [5]; over 100 µM in test [6]; 3.1 µM in test [7]; 7.96 µM in test [8].

In the case of `CC[C@H](C)[C@H](NC(=O)CN(C)C)C(=O)N(C)[C@H](C[C@@H](OC(C)=O)c1nc(C(=O)NC23CC(C(=O)OC)(C2)C3)cs1)C(C)C`, the GI50 in test [1] was 0.417 µM; in test [2], 0.119 µM; in test [3], 0.831 µM; in test [5], 0.287 µM; in test [6] it was 0.0733 µM; in test [7], 1.51 µM. In addition, in test [8], the GI50 is 2.28 µM. Also, the TGI in test [1] is over 25 µM; in test [2], over 25 µM; in test [3], over 25 µM; in test [5], over 12.2 µM; in test [6], over 25 µM; in test [7], over 25 µM. This compound came in with a TGI in test [8] of over 25 µM.

As to `CN(CCCNC(=O)CCOCCOCCOCCNC(=O)Cc1ccc2ccc3cccc4ccc1c2c34)CCCNc1cc(-c2ccc3ccccc3c2)nc2ccccc12`, the GI50 is 0.472 µM in test [1]; 0.54 µM in test [3]; 0.507 µM in test [4]; 0.546 µM in test [5]; 0.0668 µM in test [6]; 4.84 µM in test [7]. In addition, the GI50 in test [8] is 0.823 µM. In addition, the TGI in test [1] was determined as 0.938 µM; in test [3], 1.14 µM; in test [4], 0.963 µM; in test [5], 1.06 µM; in test [6], 0.146 µM; in test [7], 13.2 µM. The TGI in test [8] was 2.2 µM.

Take `CSc1ccc2c(c1)C(N1CCN(C)CC1)Cc1ccccc1S2` (centres undefined): the GI50 in test [1] was 1.53 µM; in test [2], 1.89 µM; in test [3] it was 2.1 µM; in test [4], 1.54 µM; in test [5] it was 1.85 µM; in test [7] it was 1.95 µM. Besides, in test [8], the GI50 is 1.96 µM. Besides, the TGI in test [1] was 18.6 µM and 2.95 µM; in test [2], 8.67 µM and 3.87 µM; in test [3], 14.7 µM and 5.55 µM; in test [4], 14 µM and 3.39 µM; in test [5] it was 13.7 µM and 3.65 µM; in test [6] it was 4.5 µM. Besides, the TGI in test [7] was 7.82 µM and 3.8 µM; in test [8], 12.2 µM and 3.95 µM.

For the compound `COC(=O)CSSCc1ccc([N+](=O)[O-])cc1`, the TGI was 30.8 µM in test [1]; over 100 µM in test [2]; 45.9 µM in test [3]; 36.2 µM in test [4]; 46.8 µM in test [5]; over 100 µM in test [6]. Further, the TGI came out at 42.4 µM in test [7] and 36.2 µM in test [8].

Take `Cn1c(-c2c(N)n(CCCN3CCOCC3)c3nc(C#N)c(C#N)nc23)nc2ccccc21`: the GI50 is 9.7 µM in test [1]; 6.73 µM in test [2]; 7.16 µM in test [3]; 16.4 µM in test [4]; 7.87 µM in test [5]; 45.3 µM in test [7]. The GI50 in test [8] is 41.7 µM. Besides, the TGI in test [1] is over 63.8 µM; in test [2], over 67.6 µM; in test [3], 62.2 µM; in test [4], 45 µM; in test [5], over 53.1 µM; in test [6], over 74.7 µM. The TGI in test [7] and in test [8] was over 100 µM in each case.

Regarding `COc1ccc(N(C)c2nc(N)nc3sc4c(c23)CCCC4)cc1`, the GI50 in test [1] was under 0.0114 µM; in test [2] it was under 0.0125 µM; in test [3], under 0.0159 µM; in test [4], under 0.01 µM; in test [5] it was under 0.01 µM; in test [6] it was under 0.01 µM. For the same compound, the GI50 was 0.0441 µM in test [7] and under 0.01 µM in test [8]. Besides, the TGI is 15 µM in test [1]; 28 µM in test [2]; 14.5 µM in test [3]; 20.7 µM in test [4]; 0.918 µM in test [5]; over 42.2 µM in test [6]. For the same compound, the TGI came out at 17.2 µM in test [7] and 14.6 µM in test [8].

As to `COc1ccc(N=N/C(C(=O)C(F)(F)F)=C(\O)c2ccc(Cl)cc2)cc1`, the GI50 in test [1] is 4.55 µM; in test [2] it was 5.09 µM; in test [3], 12 µM; in test [4], 12.3 µM; in test [5], 9.11 µM; in test [6] it was 3.47 µM. Also, the GI50 in test [7] is 2.78 µM; in test [8], 6.53 µM. Besides, the TGI in test [1] was 27.8 µM; in test [2] it was 53 µM; in test [3], over 100 µM; in test [4], 45 µM; in test [5], 66.9 µM; in test [6], over 100 µM. In addition, the TGI in test [7] is 8.68 µM; in test [8], over 100 µM.

As for `CC[C@H](C)[C@H](NC(=O)[C@H]1CCCCN1C)C(=O)N(C)[C@H](C[C@@H](OC(C)=O)c1nc(C(=O)N[C@@H](Cc2ccccc2)C[C@H](C)C(=O)O)cs1)C(C)C`, the GI50 in test [1] was 0.000481 µM and 0.00165 µM; in test [2], 0.00376 µM and 0.00165 µM; in test [3], 0.000834 µM and 0.00165 µM; in test [4], 0.00165 µM; in test [5], 0.00201 µM and 0.00165 µM; in test [6] it was 0.000327 µM and 0.00165 µM. Further, the GI50 in test [7] was 0.0007 µM; in test [8], 0.00481 µM and 0.00165 µM. Besides, the TGI in test [1], in test [2], in test [3], in test [4], in test [5] and in test [6] was over 16.5 µM throughout. For the same compound, the TGI in test [8] is over 16.5 µM.

For the compound `C=CCOCn1cc(C)c(=O)[nH]c1=O`, the TGI in test [2], in test [3], in test [5], in test [6] and in test [8] was over 100 µM in each case.

Turning to `CCN1CCN(C(=O)[C@]23CCC(C)(C)C[C@@H]2C2=CC[C@@H]4[C@@]5(C)C/C(=C/c6ccncc6)C(=O)C(C)(C)[C@@H]5CC[C@@]4(C)[C@]2(C)CC3)CC1`, the GI50 in test [1] was 1.42 µM; in test [4], 1.45 µM; in test [5], 1.63 µM; in test [6], 1.6 µM; in test [7], 1.73 µM; in test [8], 1.6 µM. The TGI in test [1] is 2.87 µM; in test [4], 2.81 µM; in test [5], 3.16 µM; in test [6], over 100 µM; in test [7], 3.33 µM; in test [8], 2.95 µM.

`Cc1ccc(S(=O)(=O)NC(CN)C(=O)O)cc1` (centres undefined): the TGI in test [1], in test [2], in test [3], in test [4], in test [5] and in test [7] was over 100 µM each time. This compound showed a TGI in test [8] of over 100 µM.

Regarding `O=C(CC(Cl)=C(Cl)Cl)c1cccc(Cl)c1Cl`, the GI50 in test [1] was 46.3 µM; in test [2] it was 24 µM; in test [3], over 100 µM; in test [4], over 100 µM; in test [5], 65.6 µM; in test [7] it was over 100 µM. For the same compound, the GI50 in test [8] is 47.7 µM. Moreover, the TGI in test [1], in test [2], in test [3], in test [4], in test [5] and in test [7] was over 100 µM in each case. In test [8], this compound had a TGI of over 100 µM.

As for `COC(=O)C=Cc1ccc2nncnc2c1` (mixture of isomers), the TGI in test [1], in test [2], in test [3], in test [5], in test [6] and in test [7] was over 100 µM each time. The compound also registered a TGI in test [8] of over 100 µM.

With `N#C/C(=C/NC(=S)c1ccncc1)C(N)=O`, the TGI in test [1], in test [2], in test [3], in test [4], in test [5] and in test [7] was over 100 µM throughout. For the same compound, the TGI in test [8] is over 100 µM.

For `O=C1Cc2cc(C(=O)NC3C[C@H]4CC[C@@H](C3)N4S(=O)(=O)CC3CCN(CCCC(F)(F)F)CC3)c(Cl)cc2N1` (some centres undefined), the GI50 in test [1], in test [2], in test [3], in test [5], in test [7] and in test [8] was over 100 µM in each case. Besides, the TGI in test [1], in test [2], in test [3], in test [5], in test [7] and in test [8] was over 100 µM throughout.

Regarding `O=S(=O)(c1cnccc1N1CCN(CCO)CC1)N1CCCC1`, the TGI in test [1], in test [3], in test [4], in test [5], in test [6] and in test [7] was over 100 µM in each case. Besides, the TGI in test [8] was over 100 µM.
